# Reference: paper PMC12186843, “Targeting GABAergic Hypofunction Associated with Schizophrenia: Identification of α1β2γ2GABA‑A Receptor Ligands with Neuroprotective and Antipsychotic Properties” (ACS Chemical Neuroscience, 2025)
# What was measured:
# α1β2γ2 GABA-A receptor = biological target: T1, α1β2γ2 GABA-A receptor (Homo sapiens, UniProt P14867+P18507); experiment: Electrophysiological studies (QPatch16X automated patch-clamp), PAM efficacy; type: cell-based
# T1 construct: expressed in transfected cells
# T1 sequence (P14867 28-456): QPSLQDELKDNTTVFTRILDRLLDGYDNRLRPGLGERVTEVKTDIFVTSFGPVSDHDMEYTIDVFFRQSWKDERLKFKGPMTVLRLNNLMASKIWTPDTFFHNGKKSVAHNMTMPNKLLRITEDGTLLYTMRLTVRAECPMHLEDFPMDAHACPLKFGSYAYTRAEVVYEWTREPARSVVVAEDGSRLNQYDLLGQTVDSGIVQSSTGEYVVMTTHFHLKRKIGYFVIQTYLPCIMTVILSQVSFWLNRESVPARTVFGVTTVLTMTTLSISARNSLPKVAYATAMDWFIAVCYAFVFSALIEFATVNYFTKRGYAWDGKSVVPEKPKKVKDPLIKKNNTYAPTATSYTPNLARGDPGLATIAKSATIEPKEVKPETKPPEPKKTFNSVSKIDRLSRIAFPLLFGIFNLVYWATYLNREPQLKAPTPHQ
# T1 sequence (P47870 25-512 partner limits assumed): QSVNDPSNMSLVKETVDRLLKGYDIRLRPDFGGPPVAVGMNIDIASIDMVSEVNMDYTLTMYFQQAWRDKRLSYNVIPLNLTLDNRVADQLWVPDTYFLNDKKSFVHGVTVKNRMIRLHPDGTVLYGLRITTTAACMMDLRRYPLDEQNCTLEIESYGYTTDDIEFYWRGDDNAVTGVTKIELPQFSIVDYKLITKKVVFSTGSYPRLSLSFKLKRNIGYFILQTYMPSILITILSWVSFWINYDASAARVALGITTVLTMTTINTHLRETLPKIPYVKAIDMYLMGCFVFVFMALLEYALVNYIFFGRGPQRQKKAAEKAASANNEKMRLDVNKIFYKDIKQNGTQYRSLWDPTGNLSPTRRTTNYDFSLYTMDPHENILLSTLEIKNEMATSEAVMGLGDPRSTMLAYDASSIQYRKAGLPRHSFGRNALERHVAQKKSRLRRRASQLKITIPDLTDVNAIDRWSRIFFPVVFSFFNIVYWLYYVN
# T1 sequence (P18507 40-475): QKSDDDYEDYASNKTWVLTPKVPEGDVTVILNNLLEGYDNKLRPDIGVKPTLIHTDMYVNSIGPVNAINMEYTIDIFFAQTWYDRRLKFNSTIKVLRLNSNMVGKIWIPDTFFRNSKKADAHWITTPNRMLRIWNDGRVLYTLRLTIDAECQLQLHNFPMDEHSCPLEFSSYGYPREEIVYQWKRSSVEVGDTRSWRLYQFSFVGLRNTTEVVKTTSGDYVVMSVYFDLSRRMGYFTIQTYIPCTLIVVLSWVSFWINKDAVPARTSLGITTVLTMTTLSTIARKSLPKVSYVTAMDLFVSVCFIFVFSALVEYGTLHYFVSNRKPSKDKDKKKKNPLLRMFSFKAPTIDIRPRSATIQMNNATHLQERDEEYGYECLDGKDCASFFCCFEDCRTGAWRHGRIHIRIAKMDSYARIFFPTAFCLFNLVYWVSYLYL
# [1] = Metabolic stability in human liver microsomes; type: in vitro ADME
# Protocol: In Eppendorf tubes, potassium phosphate buffer (pH 7.4), a working solution of the test compound, and human liver microsomes (final concentration: 0.4 mg/mL, Sigma-Aldrich) were combined. The mixture was incubated at 37 °C with shaking for 15 min in a thermoblock. Following this, an NADPH regeneration system (Sigma-Aldrich) was added to the mixture, which was subsequently incubated with shaking at 37 °C for various time intervals (5, 15, 30, 60, 90, 120, 150, 180, 210, and 240 min). A control experiment was run in parallel, replacing the regeneration fraction with phosphate buffer. At the designated incubation times, an internal standard (levallorphan, Sigma-Aldrich) was added to each sample. To terminate the reaction, 70% perchloric acid (Sigma-Aldrich) was added, and the samples were centrifuged at 6000 rpm for 10 min at 4 °C. The resulting supernatants were collected and subjected to LC-MS/MS analysis. Each sample was analyzed in duplicate.
# [2] = Metabolic stability in mouse liver microsomes; type: in vitro ADME
# [3] = Metabolic stability in rat liver microsomes; type: in vitro ADME
# MDR1-MDCKII cell line = experiment: A–B and B–A permeability assay in MDR1-MDCKII cell line; settings: MDCK-MDR1 permeability assay
# Protocol: (§1) The A–B and B–A permeability assay using the MDR1-MDCKII cell line was conducted at Eurofins Discovery according to a well-established protocol.
# [4] = test system: P-glycoprotein (P-gp, MDR1); experiment: as above; settings: dog
# Protocol: as §1
# SH-SY5Y cells [5] = experiment: Intracellular calcium concentration after 6-OHDA (Fluo-4); type: cell-based, human; settings: 50 μM pretreatment 1 h, then 6-OHDA 250 μM 1 h
# Protocol: (§2) 7 (A). Effect of 6-Hydroxydopamine (6-OHDA) on intracellular calcium concentration [Ca^2+] determined by Fluo-4 AM. After pretreatment with tested compounds (50 μM) or vehicle (0.5% DMSO, v/v) for 1 h, the cells were incubated with 6-Hydroxydopamine (6-OHDA, 250 μM) for 1 h. 6-OHDA control: cells treated with 250 μM of 6-OHDA. […]. DMSO control: cells treated with 0.5% DMSO only. Data are presented as the mean ± SD from 2–3 independent experiments. Experiments were carried on with ImageXpress Micro XLS (Molecular Devices). (B) The level of ROS generation was determined by Cell ROX dye. After pretreatment with tested compounds (50 μM) or vehicle (0.5% DMSO, v/v) for 1 h, the cells were incubated with hydrogen peroxide (H2O2, 300 μM) for 1 h. H2O2 control: cells treated with H2O2 (300 μM). DMSO control: cells treated with 0.5% DMSO only. Data are presented as the mean ± SD from 2–3 independent experiments. Experiments were carried on with the ImageXpress Micro XLS (Molecular Devices).
# The SH-SY5Y human neuroblastoma cell line was maintained according to established protocols. The cells, obtained from the American Type Culture Collection (ATCC), were cultured in Dulbecco’s Modified Eagle’s Medium (DMEM, high glucose; Thermo Fisher), supplemented with 10% fetal bovine serum (Thermo Fisher), 100 IU/ml penicillin (Merck), and 100 μg/mL streptomycin (Merck). They were grown in 75 cm^2 flasks (Nunc) at 37 °C in a humidified atmosphere containing 5% CO2. For compound evaluation, SH-SY5Y cells were plated in 96-well plates (Falcon) at a density of 2 × 10^4 cells per well. The cells were allowed to adhere and grow for 24 h in an incubator set to 37 °C and 5% CO2 before starting the experiments. Stock solutions of both test and reference compounds were prepared at a concentration of 10^–2 M. A minimum of 1 mg of each compound was dissolved in dimethyl sulfoxide (DMSO). Serial dilutions were made in DMSO, then further diluted in PBS, mixed, and added to the cell culture medium.
# The intracellular Ca^2+ levels were assessed using a homogeneous cell-based assay with the Fluo-4 Direct Calcium Assay Kit (Thermo Fisher). Following incubation with the tested compounds, the supernatant was discarded, and the cells were incubated with 1 μM Fluo-4/AM in FluoroBrite DMEM (Thermo Fisher) for 1 h at 37 °C. The results were expressed as a percentage relative to the control (DMSO). Fluorescence intensity was recorded using the ImageXpress Micro XLS system (Molecular Devices).
# SH-SY5Y cells [6] = experiment: ROS generation after hydrogen peroxide (CellROX); type: cell-based, human; settings: 50 μM pretreatment 1 h, then H2O2 300 μM 1 h
# Protocol: as §2
# The SH-SY5Y human neuroblastoma cell line was maintained according to established protocols. […]
# Cellular reactive oxygen species (ROS) levels were determined using the CellROX Deep Red Reagent (Thermo Fisher). […] The results were expressed as a percentage relative to the control (DMSO). Fluorescence intensity was measured using the ImageXpress Micro XLS system (Molecular Devices).
# SH-SY5Y cells [7] = experiment: ToxiLight assay (cell membrane damage); type: cell-based; settings: Table S1, 24 h
# Protocol: Damage to the cell membrane was assessed using the bioluminescent ToxiLight bioassay (Lonza), a profound method for detecting cell toxicity. Following 24 h of treatment, 5 μL of the supernatant above the sediment was transferred to a 384-well plate (PerkinElmer). Subsequently, 20 μL of Adenylate Kinase Detection Reagent (AKDR) was added to each well. Luminescence was recorded after a 10 min incubation period using a POLARstar Omega plate reader (BMG Labtech). Results are presented as a percentage relative to the control sample (cells lysed), reflecting the proportion of dead cells compared to the control.
# (§3) 1. Cytotoxicity studies for selected compounds
# Table S1. The viability of the cells SH-SY5Y after treatment with tested compounds for 24 the results are expressed as a percentage of dead cells with luminescence ToxiLight Assay. The results are expressed as a per cent of control with whole lysis cells. N.C. not countable […]
# Table S2. The viability of the cells SH-SY5Y after treatment with tested compounds for 24 h the results are expressed as a percentage of live cells with fluorescence PrestoBlue Assay. The results are expressed as a per cent of vehicle (DMSO). […]
# SH-SY5Y cells [8] = experiment: PrestoBlue cell viability assay; type: cell-based; settings: Table S2, 24 h
# Protocol: Cell viability was determined using the Presto Blue reagent (ThermoFisher) following the manufacturer’s instructions.
# as §3
# Table S1. The viability of the cells SH-SY5Y after treatment with tested compounds for 24 the results are expressed as a percentage of dead cells with luminescence ToxiLight Assay. The results are expressed as a per cent of control with whole […]
# percentage of live cells with fluorescence PrestoBlue Assay. The results are expressed as a per cent of vehicle (DMSO).
# GABA-A receptor = experiment: Radioligand binding at the GABA-A receptor; design: species or system rat; settings: mean of two-three independent experiments; read-out: GABA-A Ki ± SEM
# Protocol: The study was conducted in accordance with previously established protocols, and performed in duplicate. Rat brains were homogenized and prepared following the described methodologies. The assay was carried out directly on 96-well microplates containing 50 mM Tris-HCl buffer (pH 7.4) in a total volume of 300 μL. […] To determine nonspecific binding, 100 μM GABA was included in the mixture. The 96-well microplates were incubated at 0 °C for 10 min, followed by rapid filtration through FilterMate B glass fiber filters (PerkinElmer, USA) using a Harvester-96 MACH III FM (Tomtec, USA). The filters were gently dried in a microwave and sealed in plastic bags (PerkinElmer, USA). Each filter was then immersed in 10 mL of Ultima Gold MV liquid scintillation cocktail (PerkinElmer, USA). […] Ki values were calculated using the Cheng and Prusoff equation, and statistical analyses were conducted using GraphPad Prism (version 4.0, San Diego, CA, USA)
# PAMPA permeability assay = type: in vitro ADME; settings: PBS pH 7.4, 100 μM, 5 h, zolpidem tested as tartrate
# Protocol: PAMPA. The precoated PAMPA Plate System Gentest, obtained from Corning (Tewksbury, MA, USA), was used for the permeability study. The system includes a 96-well receiver filter plate precoated with structured phospholipid layers and a matching donor microplate. Stock solutions of the test compounds and reference drugs were prepared in PBS buffer (pH 7.4) at a final concentration of 100 μM. Each compound solution (200 μL) was added to the donor wells and incubated at room temperature for 5 h. The quantity of molecules that penetrated from the donor wells to the acceptor wells through the phospholipid membrane was determined using UPLC-MS spectrometry (Waters ACQUITY TQD system with the TQ Detector, Waters, Milford, USA) with an internal standard. Permeability coefficients (Pe, cm/s) were calculated according to the formula provided by the manufacturer.
# [9] = literature value; cited from earlier work
smiles,measurement,setting,value
"Cc1ccc2nc(-c3ccc(F)cc3)c(CC(=O)N3CC(C)NC(C)C3)n2c1 (stereo not shown) [Compound 6, 1-(3,5-Dimethylpiperazin-1-yl)-2-[2-(4-fluorophenyl)-6-methylimidazo[1,2-a]pyridin-3-yl]ethan-1-one]",EC50,α1β2γ2 GABA-A receptor,872 ± 77 nM
same,"t0,5 HLMs",[1],>60 min
same,remaining at 0.25 h,"[1]; human, liver microsomes, pH 7.4, after 15 min of biotransformation, read-out: % remaining of the parent compound HLMs",74%
same,microsomal CLint,"[1]; human, liver microsomes, pH 7.4, read-out: Clint HLMs",< 40 µL/min/mg
same,"t0,5 MLMs",[2],58 min
same,remaining at 0.25 h,"[2]; mouse, liver microsomes, pH 7.4, after 15 min of biotransformation, read-out: % remaining of the parent compound MLMs",68%
same,microsomal CLint,"[2]; mouse, liver microsomes, pH 7.4, read-out: Clint MLMs",< 40 µL/min/mg
same,"t0,5 RLMs",[3],44 min
same,remaining at 0.25 h,"[3]; rat, liver microsomes, pH 7.4, after 15 min of biotransformation, read-out: % remaining of the parent compound RLMs",70%
same,microsomal CLint,"[3]; rat, liver microsomes, pH 7.4, read-out: Clint RLMs",< 40 µL/min/mg
same,Substrate for P-glycoprotein (P-gp) efflux,MDR1-MDCKII cell line,possible substrate
same,Papp A→B at 10 μM,"[4]; MDCK-MDR1, pH 7.4",14.5 ×10⁻⁶ cm/s
same,Papp B→A at 10 μM,"[4]; MDCK-MDR1, pH 7.4",24.6 ×10⁻⁶ cm/s
same,efflux ratio at 10 μM,"[4]; MDCK-MDR1, pH 7.4, Efflux ratio (Paap B–A/A–B), pH 7.4/7.4, 6 and 17 at 10 μM",1.68
same,Reduction of intracellular calcium levels,SH-SY5Y cells [5],28%
same,Decrease of ROS levels,SH-SY5Y cells [6],32%
same,"X [%], percentage of dead cells, ToxiLight Assay (per cent of control with whole lysis cells)",SH-SY5Y cells [7]; 1E-04 M,74%
same,"X [%], percentage of dead cells, ToxiLight Assay (per cent of control with whole lysis cells)",SH-SY5Y cells [7]; 1E-05 M,93%
same,"X [%], percentage of dead cells, ToxiLight Assay (per cent of control with whole lysis cells)",SH-SY5Y cells [7]; 1E-06 M,109%
same,"X [%], percentage of dead cells, ToxiLight Assay (per cent of control with whole lysis cells)",SH-SY5Y cells [7]; 1E-07 M,97%
same,"X [%], percentage of dead cells, ToxiLight Assay (per cent of control with whole lysis cells)",SH-SY5Y cells [7]; 1E-08 M,108%
same,"X [%], percentage of dead cells, ToxiLight Assay (per cent of control with whole lysis cells)",SH-SY5Y cells [7]; 1E-09 M,101%
same,"X [%], percentage of dead cells, ToxiLight Assay (per cent of control with whole lysis cells)",SH-SY5Y cells [7]; 3E-05 M,87%
same,"X [%], percentage of dead cells, ToxiLight Assay (per cent of control with whole lysis cells)",SH-SY5Y cells [7]; 3E-06 M,105%
same,"X [%], percentage of live cells, PrestoBlue Assay (per cent of vehicle DMSO)",SH-SY5Y cells [8]; 1E-05 M,17%
same,"X [%], percentage of live cells, PrestoBlue Assay (per cent of vehicle DMSO)",SH-SY5Y cells [8]; 1E-06 M,16%
same,"X [%], percentage of live cells, PrestoBlue Assay (per cent of vehicle DMSO)",SH-SY5Y cells [8]; 1E-07 M,17%
same,"X [%], percentage of live cells, PrestoBlue Assay (per cent of vehicle DMSO)",SH-SY5Y cells [8]; 1E-08 M,18%
same,"X [%], percentage of live cells, PrestoBlue Assay (per cent of vehicle DMSO)",SH-SY5Y cells [8]; 1E-09 M,17%
same,"X [%], percentage of live cells, PrestoBlue Assay (per cent of vehicle DMSO)",SH-SY5Y cells [8]; 3E-05 M,17%
same,"X [%], percentage of live cells, PrestoBlue Assay (per cent of vehicle DMSO)",SH-SY5Y cells [8]; 3E-06 M,16%
"Cc1ccc(-c2nc3ccc(C)cn3c2CC(=O)N(C)C)cc1 [zolpidem, reference compound]",Ki,GABA-A receptor,37.8 ± 2.7 nM
same,Permeability Pe ± SD,PAMPA permeability assay,21.6 ± 1.26 ·10^–6 cm/s
same,Reduction of intracellular calcium levels,SH-SY5Y cells [5],47%
same,"X [%], percentage of dead cells, ToxiLight Assay (per cent of control with whole lysis cells)",SH-SY5Y cells [7]; 1E-04 M,71%
same,"X [%], percentage of dead cells, ToxiLight Assay (per cent of control with whole lysis cells)",SH-SY5Y cells [7]; 1E-05 M,92%
same,"X [%], percentage of dead cells, ToxiLight Assay (per cent of control with whole lysis cells)",SH-SY5Y cells [7]; 1E-06 M,98%
same,"X [%], percentage of dead cells, ToxiLight Assay (per cent of control with whole lysis cells)",SH-SY5Y cells [7]; 1E-07 M,100%
same,"X [%], percentage of dead cells, ToxiLight Assay (per cent of control with whole lysis cells)",SH-SY5Y cells [7]; 1E-08 M,101%
same,"X [%], percentage of dead cells, ToxiLight Assay (per cent of control with whole lysis cells)",SH-SY5Y cells [7]; 1E-09 M,100%
same,"X [%], percentage of dead cells, ToxiLight Assay (per cent of control with whole lysis cells)",SH-SY5Y cells [7]; 3E-05 M,90%
same,"X [%], percentage of dead cells, ToxiLight Assay (per cent of control with whole lysis cells)",SH-SY5Y cells [7]; 3E-06 M,96%
same,"plasma half-life (t0,5) in humans",[9],2–3 h and ≈ 2 h
